Our source for the IC50 values is patent US20250122174A1 (Shenzhen Yuanli Shenwan Innovative Medicine Co., Ltd., priority 2022, published 2025).

The target of this assay is HPK1 (Homo sapiens (Human), UniProt Q92918). As to the kind of experiment: HPK1 Inhibition Assay (ADP-Glo kinase assay). The assay is classed as biochemical. As to conditions: ATP 10 μM. The procedure, abridged: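 ADP-Glo luminescence read-out after 1 h room-temperature kinase reaction with 10 μM ATP and 0.1 μg/ml MBP. Recombinant human HPK1 at 7.5 ng/μl; buffer 40 mM Tris pH 7.5, 20 mM MgCl2. Compounds serially diluted 5-fold over 10 points from 10 mM DMSO stock.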
Sequence of HPK1 (Q92918 1-346 limits assumed): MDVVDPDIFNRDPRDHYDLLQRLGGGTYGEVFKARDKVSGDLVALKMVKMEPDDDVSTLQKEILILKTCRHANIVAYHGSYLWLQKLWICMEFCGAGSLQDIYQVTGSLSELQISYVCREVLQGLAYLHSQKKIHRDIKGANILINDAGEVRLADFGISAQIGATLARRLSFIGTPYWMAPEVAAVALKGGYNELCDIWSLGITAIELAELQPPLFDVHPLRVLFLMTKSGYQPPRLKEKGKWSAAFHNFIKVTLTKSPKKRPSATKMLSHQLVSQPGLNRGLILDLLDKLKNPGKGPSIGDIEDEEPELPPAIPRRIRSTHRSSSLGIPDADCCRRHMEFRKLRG
`Cc1nc2c(N3CCC4(CC3)CNC4)c(NC(=O)c3ccc(=O)n(-c4c(F)cccc4F)n3)ccc2n1C` [Example 78, 1-(2,6-difluorophenyl)-N-(1,2-dimethyl-4-(2,7-diazaspiro[3.5]nonan-7-yl)-1H-benzo[d]imidazol-5-yl)-6-oxo-1,6-dihydropyridazine-3-carboxamide] returned an IC50 of under 100 nM.

Consider `Cc1nc2c(N3CC4CNCC4C3)c(NC(=O)c3ccc(=O)n(-c4c(F)cccc4F)n3)ccc2n1C` (centres unmarked) [Example 79, 1-(2,6-difluorophenyl)-N-(4-(hexahydropyrrolo[3,4-c]pyrrol-2(1H)-yl)-1,2-dimethyl-1H-benzo[d]imidazol-5-yl)-6-oxo-1,6-dihydropyridazine-3-carboxamide], for which the IC50 is under 100 nM.

Turning to `Cc1nc2c(N3C[C@H]4C[C@@H]3CN4)c(NC(=O)c3ccc(=O)n(-c4c(F)cccc4F)n3)ccc2n1C` [Example 80, N-(4-((1R,4R)-2,5-diazabicyclo[2.2.1]heptan-2-yl)-1,2-dimethyl-1H-benzo[d]imidazol-5-yl)-1-(2,6-difluorophenyl)-6-oxo-1,6-dihydropyridazine-3-carboxamide], the IC50 was under 100 nM.

In turn, `Cc1nc2c(N3CCNC4(CC4)C3)c(NC(=O)c3ccc(=O)n(-c4c(F)cccc4F)n3)ccc2n1C` [Example 81, 1-(2,6-difluorophenyl)-N-(1,2-dimethyl-4-(4,7-diazaspiro[2.5]octan-7-yl)-1H-benzo[d]imidazol-5-yl)-6-oxo-1,6-dihydropyridazine-3-carboxamide] displayed an IC50 of under 100 nM.

Molecule `Cc1nc2c(N3CC[C@H](O)C3)c(NC(=O)c3ccc(=O)n(-c4c(F)cccc4F)n3)ccc2n1C` [Example 82, (S)-1-(2,6-difluorophenyl)-N-(4-(3-hydroxypyrrolidin-1-yl)-1,2-dimethyl-1H-benzo[d]imidazol-5-yl)-6-oxo-1,6-dihydropyridazine-3-carboxamide] came in with a half-inhibitory concentration (IC50) of under 100 nM.

`Cc1nc2c(N3CCCC4(CNC4)C3)c(NC(=O)c3ccc(=O)n(-c4c(F)cccc4F)n3)ccc2n1C` [Example 84, 1-(2,6-difluorophenyl)-N-(1,2-dimethyl-4-(2,6-diazaspiro[3.5]nonan-6-yl)-1H-benzo[d]imidazol-5-yl)-6-oxo-1,6-dihydropyridazine-3-carboxamide] registered an IC50 of 100 to 1000 nM.

Turning to `Cc1nc2c(N3CCC4(CNC4)C3)c(NC(=O)c3ccc(=O)n(-c4c(F)cccc4F)n3)ccc2n1C` [Example 85, 1-(2,6-difluorophenyl)-N-(1,2-dimethyl-4-(2,6-diazaspiro[3.4]octan-6-yl)-1H-benzo[d]imidazol-5-yl)-6-oxo-1,6-dihydropyridazine-3-carboxamide], the IC50 was under 100 nM.

Take `Cc1nc2c(N(C)CC3CNC3)c(NC(=O)c3ccc(=O)n(-c4c(F)cccc4F)n3)ccc2n1C` [Example 86, N-(4-((azetidin-3-ylmethyl)(methyl)amino)-1,2-dimethyl-1H-benzo[d]imidazol-5-yl)-1-(2,6-difluorophenyl)-6-oxo-1,6-dihydropyridazine-3-carboxamide]: the IC50 was in the range of 100 to 1000 nM.

`Cn1ncc2c(N3C[C@@H]4C[C@H]3CN4)c(NC(=O)c3ccc(=O)n(-c4c(F)cccc4F)n3)ccc21` [Example 87, N-(4-((1S,4S)-2,5-diazabicyclo[2.2.1]heptan-2-yl)-1-methyl-1H-indazol-5-yl)-1-(2,6-difluorophenyl)-6-oxo-1,6-dihydropyridazine-3-carboxamide] showed an IC50 of 100 to 1000 nM.

For `Cc1nc2c(N3CC[C@H](N)C3)c(NC(=O)c3ccc(=O)n(-c4c(F)cccc4F)n3)ccc2n1C1CCOCC1` [Example 88, (S)-N-(4-(3-aminopyrrolidin-1-yl)-2-methyl-1-(tetrahydro-2H-pyran-4-yl)-1H-benzo[d]imidazol-5-yl)-1-(2,6-difluorophenyl)-6-oxo-1,6-dihydropyridazine-3-carboxamide], the IC50 was under 100 nM.

Molecule `COCCn1c(C)nc2c(N3CC[C@H](N)C3)c(NC(=O)c3ccc(=O)n(-c4c(F)cccc4F)n3)ccc21` [Example 89, (S)-N-(4-(3-aminopyrrolidin-1-yl)-1-(2-methoxyethyl)-2-methyl-1H-benzo[d]imidazol-5-yl)-1-(2,6-difluorophenyl)-6-oxo-1,6-dihydropyridazine-3-carboxamide] yielded a half-inhibitory concentration (IC50) of under 100 nM.

`Cc1nc2c(N3CC[C@@](C)(N)C3)c(NC(=O)c3ccc(=O)n(-c4c(F)cccc4F)n3)ccc2n1C` [Example 90, (R)-N-(4-(3-amino-3-methylpyrrolidin-1-yl)-1,2-dimethyl-1H-benzo[d]imidazol-5-yl)-1-(2,6-difluorophenyl)-6-oxo-1,6-dihydropyridazine-3-carboxamide] had an IC50 of under 100 nM.

`Cc1nc2c(N3C[C@H](N)C4(CC4)C3)c(NC(=O)c3ccc(=O)n(-c4c(F)cccc4F)n3)ccc2n1C` [Example 91, (R)-N-(4-(7-amino-5-azaspiro[2.4]heptan-5-yl)-1,2-dimethyl-1H-benzo[d]imidazol-5-yl)-1-(2,6-difluorophenyl)-6-oxo-1,6-dihydropyridazine-3-carboxamide] showed an IC50 of under 100 nM.

`Cc1nc2c(N3CC[C@@H](NC(=O)CN)C3)c(NC(=O)c3ccc(=O)n(-c4c(F)cccc4F)n3)ccc2n1C` [Example 92, (R)-N-(4-(3-(2-aminoacetamido)pyrrolidin-1-yl)-1,2-dimethyl-1H-benzo[d]imidazol-5-yl)-1-(2,6-difluorophenyl)-6-oxo-1,6-dihydropyridazine-3-carboxamide] yielded an IC50 of under 100 nM.

The molecule `Cc1nc2c(N3CCC[C@H]3CN)c(NC(=O)c3ccc(=O)n(-c4c(F)cccc4F)n3)ccc2n1C` [Example 93, (S)-N-(4-(2-(aminomethyl)pyrrolidin-1-yl)-1,2-dimethyl-1H-benzo[d]imidazol-5-yl)-1-(2,6-difluorophenyl)-6-oxo-1,6-dihydropyridazine-3-carboxamide] gave an IC50 of under 100 nM.

The molecule `Cc1nc2c(N3C[C@H](N)C(F)(F)C3)c(NC(=O)c3ccc(=O)n(-c4c(F)cccc4F)n3)ccc2n1C` [Example 94, (S)-N-(4-(4-amino-3,3-difluoropyrrolidin-1-yl)-1,2-dimethyl-1H-benzo[d]imidazol-5-yl)-1-(2,6-difluorophenyl)-6-oxo-1,6-dihydropyridazine-3-carboxamide] yielded an IC50 of under 100 nM.

On to `Cc1nc2c(N3CCC(N)C(F)(F)C3)c(NC(=O)c3ccc(=O)n(-c4c(F)cccc4F)n3)ccc2n1C` (centres unmarked) [Example 95, N-(4-(4-amino-3,3-difluoropiperidin-1-yl)-1,2-dimethyl-1H-benzo[d]imidazol-5-yl)-1-(2,6-difluorophenyl)-6-oxo-1,6-dihydropyridazine-3-carboxamide], for which the IC50 is under 100 nM.

On to `Cc1nc2c(N3CC(N)CC(F)(F)C3)c(NC(=O)c3ccc(=O)n(-c4c(F)cccc4F)n3)ccc2n1C` (centres unmarked) [Example 96, N-(4-(5-amino-3,3-difluoropiperidin-1-yl)-1,2-dimethyl-1H-benzo[d]imidazol-5-yl)-1-(2,6-difluorophenyl)-6-oxo-1,6-dihydropyridazine-3-carboxamide], for which the IC50 is under 100 nM.

The molecule `Cn1c(C2CC2)nc2c(N3CC[C@H](N)C3)c(NC(=O)c3ccc(=O)n(-c4c(F)cccc4F)n3)ccc21` [Example 97, N-{4-[(35)-3-aminopyrrolidin-1-yl]-2-cyclopropyl-1-methyl-1,3-benzodiazol-5-yl}-1-(2,6-difluorophenyl)-6-oxopyridazine-3-carboxamide] registered an IC50 of under 100 nM.

Take `Cn1c(C(C)(C)C)nc2c(N3CC[C@H](N)C3)c(NC(=O)c3ccc(=O)n(-c4c(F)cccc4F)n3)ccc21` [Example 98, N-{4-[(3S)-3-aminopyrrolidin-1-yl]-2-tert-butyl-1-methyl-1,3-benzodiazol-5-yl}-1-(2,6-difluorophenyl)-6-oxopyridazine-3-carboxamide]: the IC50 is under 100 nM.

Take `Cn1c(C(C)(C)C)nc2c(N3CC[C@@H](N)C3)c(NC(=O)c3ccc(=O)n(-c4c(F)cccc4F)n3)ccc21` [Example 99, (R)-N-(4-(3-aminopyrrolidin-1-yl)-2-(tert-butyl)-1-methyl-1H-benzo[d]imidazol-5-yl)-1-(2,6-difluorophenyl)-6-oxo-1,6-dihydropyridazine-3-carboxamide]: the IC50 was under 100 nM.

Molecule `Cn1c(C(C)(C)C)nc2c(N3CC[C@@H](O)C3)c(NC(=O)c3ccc(=O)n(-c4c(F)cccc4F)n3)ccc21` [Example 102, (R)-N-(4-(2-tert-butyl)-4-(3-hydroxypyrrolidin-1-yl)-1-methyl-1H-benzo 112 midazolezol-5-yl)-1-(2,6-difluorophenyl)-6-oxo-1,6-dihydropyridazine-3-carboxamide] registered an IC50 of under 100 nM.

As for `Cn1c(C(C)(C)C)nc2c(N3CCC[C@H]3CN)c(NC(=O)c3ccc(=O)n(-c4c(F)cccc4F)n3)ccc21` [Example 103], the IC50 was under 100 nM.

The molecule `C[C@@H]1CN(c2c(NC(=O)c3ccc(=O)n(-c4c(F)cccc4F)n3)ccc3c2nc(C(C)(C)C)n3C)C[C@@H]1N` [Example 104, N-(4-((3R,4R)-3-amino-4-methylpyrrolidin-1-yl)-2-(tert-butyl)-1-methyl-1H-benzo 112 midazolezol-5-yl)-1-(2,6-difluorophenyl)-6-oxo-1,6-dihydropyridazine-3-carboxamide] gave an IC50 of under 100 nM.

The molecule `Cn1c(C(C)(C)C)nc2c(N3CCC(N)(CO)C3)c(NC(=O)c3ccc(=O)n(-c4c(F)cccc4F)n3)ccc21` (centres unmarked) [Example 105, N-(4-(3-amino-3-(hydroxymethyl)pyrrolidin-1-yl)-2-(tert-butyl)-1-methyl-1H-benzo[d]imidazol-5-yl)-1-(2,6-difluorophenyl)-6-oxo-1,6-dihydropyridazine-3-carboxamide] showed a half-maximal inhibitory concentration (IC50) of under 100 nM.

In turn, `Cc1nc2c(N3CC[C@H](N)C3)c(NC(=O)c3ccc(=O)n(-c4c(F)cccc4F)n3)ccc2n1C1CCN(C)CC1` [Example 106, (S)—N-(4-(3-aminopyrrolidin-1-yl)-2-methyl-1-(1-methylpiperidin-4-yl)-1H-benzo[d]imidazol-5-yl)-1-(2,6-difluorophenyl)-6-oxo-1,6-dihydropyridazine-3-carboxamide] registered a concentration for half-maximal inhibition (IC50) of under 100 nM.
